Assay results published in ChEMBL document CHEMBL4888484, “Replenishing the malaria drug discovery pipeline: Screening and hit evaluation of the MMV Hit Generation Library 1 (HGL1) against asexual blood stage Plasmodium falciparum ,using a nano luciferase reporter read-out” (2022).

Experiments:
Plasmodium falciparum [1] = test: Hit confirmation in dose-response curve in Dd2 pLDH assay, at 72h; type: functional, organism-based; design: timepoint 72 hour; conditions: Dd2, Erythrocyte
[2] = Hit confirmation in dose-response curve in HepG2 cytotoxicity assay, at 72h; type: toxicity, cell-based; design: timepoint 72 hour; conditions: human, HepG2 cells
Plasmodium falciparum [3] = test: Hit confirmation in dose-response curve in NF54 pLDH assay, at 72h; type: functional, organism-based; design: timepoint 72 hour; conditions: NF54, Erythrocyte
Plasmodium falciparum [4] = test: Hit confirmation in dose-response curve in NF54 nanoGlo assay, at 12h; type: functional, organism-based, Erythrocyte; design: timepoint 12 hour; conditions: Plasmodium falciparum, NF54, Erythrocyte, 12 h
Plasmodium falciparum [5] = test: Hit confirmation in dose-response curve in NF54 nanoGlo assay, at 72h; type: functional, organism-based, Erythrocyte; design: timepoint 72 hour; conditions: Plasmodium falciparum, NF54, Erythrocyte, 72 h

With `COC1CCCC1NC(=O)Nc1ncc(Br)cc1C` (stereo not given) the IC50 (Plasmodium falciparum [1]) was 2290 nM, the IC50 at 72 h [2] was greater than 10000 nM and the IC50 (Plasmodium falciparum [3]) was 1380 nM. For the same molecule, the IC50 (Plasmodium falciparum [4]) was 6760 nM and the IC50 (Plasmodium falciparum [5]) was 2000 nM.
For `OC(CNC1CCCNc2ccccc21)c1ccc(Cl)s1` (stereo not given), the IC50 (Plasmodium falciparum [1]) was 3630 nM, the IC50 at 72 h [2] was greater than 10000 nM and the IC50 (Plasmodium falciparum [3]) was 3890 nM. It also gave an IC50 (Plasmodium falciparum [4]) of 2950 nM and an IC50 (Plasmodium falciparum [5]) of 2290 nM.
`COc1ccccc1N(Cc1ccccc1)C1=NC(=[N+](Cc2ccccc2)c2ccccc2OC)c2ccccc21` gave an IC50 (Plasmodium falciparum [1]) of 5500 nM, an IC50 at 72 h [2] greater than 10000 nM and an IC50 (Plasmodium falciparum [3]) of 6030 nM. It also gave an IC50 (Plasmodium falciparum [4]) of 4680 nM and an IC50 (Plasmodium falciparum [5]) of 2820 nM.
`COc1cc(C(=O)Nc2[nH]c(=O)ncc2F)ccc1Cl` gave an IC50 (Plasmodium falciparum [1]) greater than 10000 nM, an IC50 at 72 h [2] greater than 10000 nM and an IC50 (Plasmodium falciparum [3]) of 10 nM. The IC50 (Plasmodium falciparum [4]) was 7760 nM and the IC50 (Plasmodium falciparum [5]) was 5.89 nM.
In the case of `NC1CC(NCCc2cccc3cccnc23)c2ccccc21` (stereo not given), the IC50 (Plasmodium falciparum [1]) is reported as 5750 nM, the IC50 at 72 h [2] is reported as greater than 10000 nM and the IC50 (Plasmodium falciparum [3]) is reported as 7760 nM. The IC50 (Plasmodium falciparum [4]) was 5010 nM and the IC50 (Plasmodium falciparum [5]) was 2450 nM.
For `CCc1ccc(NC(=O)[C@H](C)N2CCC(NS(=O)(=O)c3cccs3)CC2)cc1`, the IC50 (Plasmodium falciparum [1]) was 2290 nM, the IC50 at 72 h [2] was greater than 10000 nM and the IC50 (Plasmodium falciparum [3]) was 4170 nM. It also gave an IC50 (Plasmodium falciparum [4]) of 4790 nM and an IC50 (Plasmodium falciparum [5]) of 1150 nM.
`CN(Cc1ccsc1)C(=O)c1cc2ccccc2[nH]1` showed an IC50 (Plasmodium falciparum [1]) greater than 10000 nM, an IC50 at 72 h [2] greater than 10000 nM and an IC50 (Plasmodium falciparum [3]) greater than 10000 nM. The IC50 (Plasmodium falciparum [4]) was greater than 10000 nM and the IC50 (Plasmodium falciparum [5]) was greater than 10000 nM.
In the case of `Cc1cccc2ncnc(N(C)[C@@H](C)Cc3ccc(O)cc3)c12`, the IC50 (Plasmodium falciparum [1]) is reported as 2820 nM, the IC50 at 72 h [2] is reported as greater than 10000 nM and the IC50 (Plasmodium falciparum [3]) is reported as 3090 nM. The IC50 (Plasmodium falciparum [4]) was 2450 nM and the IC50 (Plasmodium falciparum [5]) was 1860 nM.
`Cc1ccc(C(F)(F)C(=O)NCCC(=O)NS(C)(=O)=O)cc1` gave an IC50 (Plasmodium falciparum [1]) greater than 10000 nM, an IC50 at 72 h [2] greater than 10000 nM and an IC50 (Plasmodium falciparum [3]) of 447 nM. For the same molecule, the IC50 (Plasmodium falciparum [4]) was greater than 10000 nM and the IC50 (Plasmodium falciparum [5]) was 2750 nM.
With `CC1(C)C(NCC(O)COc2ccc(F)c(F)c2)[C@@H]2CCC[C@@H]21` (stereo not given in full) the IC50 (Plasmodium falciparum [1]) was 3240 nM, the IC50 at 72 h [2] was greater than 10000 nM and the IC50 (Plasmodium falciparum [3]) was 3240 nM. The IC50 (Plasmodium falciparum [4]) was 2950 nM and the IC50 (Plasmodium falciparum [5]) was 1780 nM.
Molecule `C[C@@H](CN)N(C)c1ccnc2cc(Br)cnc12` has an IC50 (Plasmodium falciparum [1]) of 447 nM, an IC50 at 72 h [2] greater than 10000 nM and an IC50 (Plasmodium falciparum [3]) of 562 nM. It also gave an IC50 (Plasmodium falciparum [4]) of 661 nM and an IC50 (Plasmodium falciparum [5]) of 513 nM.
Work on `O=C(Nc1[nH]c(=O)ncc1F)c1cc(F)c(F)cc1Br` yielded an IC50 (Plasmodium falciparum [1]) greater than 10000 nM, an IC50 at 72 h [2] greater than 10000 nM and an IC50 (Plasmodium falciparum [3]) of 1.66 nM. For the same molecule, the IC50 (Plasmodium falciparum [4]) was 501 nM and the IC50 (Plasmodium falciparum [5]) was 1.91 nM.
`Cc1cc(Br)cc(N[C@H](c2cccnc2)c2ncc[nH]2)c1` showed an IC50 (Plasmodium falciparum [1]) greater than 10000 nM, an IC50 at 72 h [2] greater than 10000 nM and an IC50 (Plasmodium falciparum [3]) greater than 10000 nM. For the same molecule, the IC50 (Plasmodium falciparum [4]) was 1480 nM and the IC50 (Plasmodium falciparum [5]) was 3390 nM.
Work on `COc1cc(C(=O)Nc2ccc3sc(NC(=O)c4cc(OC)c(OC)c(OC)c4)nc3n2)cc(OC)c1OC` yielded an IC50 (Plasmodium falciparum [1]) of 2950 nM, an IC50 at 72 h [2] greater than 10000 nM and an IC50 (Plasmodium falciparum [3]) of 2950 nM. The IC50 (Plasmodium falciparum [4]) was 1150 nM and the IC50 (Plasmodium falciparum [5]) was 263 nM.
Molecule `Cc1cc(C(=O)N[C@@H](C)c2nc(-c3cccnc3)cs2)cc(O)n1` has an IC50 (Plasmodium falciparum [1]) of 2400 nM, an IC50 at 72 h [2] greater than 10000 nM and an IC50 (Plasmodium falciparum [3]) of 2240 nM. For the same molecule, the IC50 (Plasmodium falciparum [4]) was 3390 nM and the IC50 (Plasmodium falciparum [5]) was 1740 nM.
`O=C(Nc1ccc(Cl)c(Cl)c1)Nc1ccc(Cl)cc1NC(=O)Nc1ccc(Cl)c(Cl)c1` showed an IC50 (Plasmodium falciparum [1]) of 4470 nM, an IC50 at 72 h [2] greater than 10000 nM and an IC50 (Plasmodium falciparum [3]) of 6920 nM. For the same molecule, the IC50 (Plasmodium falciparum [4]) was 3310 nM and the IC50 (Plasmodium falciparum [5]) was 2040 nM.
Molecule `CC1CC(C(=O)Nc2[nH]c(=O)ncc2F)CC(C)(C)C1` (stereo not given) has an IC50 (Plasmodium falciparum [1]) greater than 10000 nM, an IC50 at 72 h [2] greater than 10000 nM and an IC50 (Plasmodium falciparum [3]) of 3.31 nM. The IC50 (Plasmodium falciparum [4]) was 490 nM and the IC50 (Plasmodium falciparum [5]) was 2.04 nM.
Molecule `Cc1cc(NC(=O)c2ccccn2)n(-c2nc3ccccc3o2)n1` has an IC50 (Plasmodium falciparum [1]) of 3160 nM, an IC50 at 72 h [2] greater than 10000 nM and an IC50 (Plasmodium falciparum [3]) of 3630 nM. It also gave an IC50 (Plasmodium falciparum [4]) greater than 10000 nM and an IC50 (Plasmodium falciparum [5]) of 457 nM.
Work on `Cc1ccccc1C(=O)Cc1ncc[nH]1` yielded an IC50 (Plasmodium falciparum [1]) of 3890 nM, an IC50 at 72 h [2] greater than 10000 nM and an IC50 (Plasmodium falciparum [3]) of 5750 nM. It also gave an IC50 (Plasmodium falciparum [4]) of 4900 nM and an IC50 (Plasmodium falciparum [5]) of 2290 nM.
Work on `CCOC(=O)c1cc(F)cc(S(=O)(=O)Nc2ccnc3ncnn23)c1` yielded an IC50 (Plasmodium falciparum [1]) greater than 10000 nM, an IC50 at 72 h [2] greater than 10000 nM and an IC50 (Plasmodium falciparum [3]) greater than 10000 nM. The IC50 (Plasmodium falciparum [4]) was 1350 nM and the IC50 (Plasmodium falciparum [5]) was 5890 nM.
`CC(C)c1nc(C(=O)Nc2[nH]c(=O)ncc2F)cs1` showed an IC50 (Plasmodium falciparum [1]) greater than 10000 nM, an IC50 at 72 h [2] greater than 10000 nM and an IC50 (Plasmodium falciparum [3]) of 2.14 nM. The IC50 (Plasmodium falciparum [4]) was 955 nM and the IC50 (Plasmodium falciparum [5]) was 1.95 nM.
`FC(F)(F)C1CN(c2nc(-c3ccccn3)nc3c2CCC3)C1` gave an IC50 (Plasmodium falciparum [1]) of 2290 nM, an IC50 at 72 h [2] greater than 10000 nM and an IC50 (Plasmodium falciparum [3]) of 2450 nM. The IC50 (Plasmodium falciparum [4]) was 2450 nM and the IC50 (Plasmodium falciparum [5]) was 1290 nM.
Molecule `Cc1cc(C(=O)NC2CC(C)n3ccnc32)nn1C(C)C` (stereo not given) has an IC50 (Plasmodium falciparum [1]) greater than 10000 nM, an IC50 at 72 h [2] greater than 10000 nM and an IC50 (Plasmodium falciparum [3]) of 100 nM. It also gave an IC50 (Plasmodium falciparum [4]) greater than 10000 nM and an IC50 (Plasmodium falciparum [5]) of 2450 nM.
For `Oc1cccc(CN[C@H]2CCCc3occc32)c1Cl`, the IC50 (Plasmodium falciparum [1]) was 2750 nM, the IC50 at 72 h [2] was greater than 10000 nM and the IC50 (Plasmodium falciparum [3]) was 2750 nM. The IC50 (Plasmodium falciparum [4]) was 2040 nM and the IC50 (Plasmodium falciparum [5]) was 1580 nM.
For `O=C(c1ccccc1)c1ccc(O)c(CN2CCCN(c3ccc(C(F)(F)F)cn3)CC2)c1O`, the IC50 (Plasmodium falciparum [1]) was 3090 nM, the IC50 at 72 h [2] was greater than 10000 nM and the IC50 (Plasmodium falciparum [3]) was 3720 nM. For the same molecule, the IC50 (Plasmodium falciparum [4]) was 2820 nM and the IC50 (Plasmodium falciparum [5]) was 1820 nM.
`CC1CC(Nc2ncnc3cc(Br)ccc23)CCN1C` (stereo not given) showed an IC50 (Plasmodium falciparum [1]) of 1070 nM, an IC50 at 72 h [2] greater than 10000 nM and an IC50 (Plasmodium falciparum [3]) of 1580 nM. For the same molecule, the IC50 (Plasmodium falciparum [4]) was 1550 nM and the IC50 (Plasmodium falciparum [5]) was 1050 nM.
